# According to patent US20240226107A1, “UBIQUITIN-SPECIFIC PROTEASE 1 (USP1) INHIBITOR” (SIMCERE ZAIMING PHARMACEUTICAL CO., LTD., priority 2021, published 2024):
# Molecular target: USP1 (Recombinant Human His6-USP1/His6-UAF1 Complex Protein) (Homo sapiens (Human), UniProt O94782)
# Test: In vitro activity assay for USP1 (Ub-CHOP2-Reporter deubiquitination assay)
# Assay type: biochemical
# Conditions: 0.5 h incubation at room temperature, read-out: In vitro inhibitory activity of USP1 IC50
# Experimental: The assay kit (Ub-CHOP2-Reporter Deubiquitination Assay Kit) was purchased from Lifesensors, with Cat. No. of PR1101. The assay kit was subpackaged and stored at −80° C.
# Each compound to be tested was dissolved with DMSO to 10 mM. The compound and pure DMSO (with a total volume of 50 nL) were loaded to each well of the 384-well plate by using an ECHO instrument to obtain gradient-diluted sample concentrations at different ratios. The enzyme was diluted with a freshly prepared reaction solution (20 mM Tris-HCl (pH 8.0), 2 mM CaCl2, 2 mM β-mercaptoethanol, 0.05% CHAPS, and ddH2O). To each well, 5 μL of diluted enzyme reaction solution was added, then the plate was centrifuged and oscillated to mix the enzyme and the compound, and the mixture was centrifuged again and placed on ice. The kit reporter system and the substrate were diluted with the reaction solution, then 5 μL of diluted liquid was added to each well, and mixed by centrifugation. The mixture was incubated at room temperature for 0.5 h. […] The inhibitory activity (IC50 values) of the compound on enzyme activity was calculated by using a four-parameter Logistic Model. […] A, B, C, and D are four parameters.
# Chain of USP1 (Recombinant Human His6-USP1/His6-UAF1 Complex Protein) (O94782 whole entry): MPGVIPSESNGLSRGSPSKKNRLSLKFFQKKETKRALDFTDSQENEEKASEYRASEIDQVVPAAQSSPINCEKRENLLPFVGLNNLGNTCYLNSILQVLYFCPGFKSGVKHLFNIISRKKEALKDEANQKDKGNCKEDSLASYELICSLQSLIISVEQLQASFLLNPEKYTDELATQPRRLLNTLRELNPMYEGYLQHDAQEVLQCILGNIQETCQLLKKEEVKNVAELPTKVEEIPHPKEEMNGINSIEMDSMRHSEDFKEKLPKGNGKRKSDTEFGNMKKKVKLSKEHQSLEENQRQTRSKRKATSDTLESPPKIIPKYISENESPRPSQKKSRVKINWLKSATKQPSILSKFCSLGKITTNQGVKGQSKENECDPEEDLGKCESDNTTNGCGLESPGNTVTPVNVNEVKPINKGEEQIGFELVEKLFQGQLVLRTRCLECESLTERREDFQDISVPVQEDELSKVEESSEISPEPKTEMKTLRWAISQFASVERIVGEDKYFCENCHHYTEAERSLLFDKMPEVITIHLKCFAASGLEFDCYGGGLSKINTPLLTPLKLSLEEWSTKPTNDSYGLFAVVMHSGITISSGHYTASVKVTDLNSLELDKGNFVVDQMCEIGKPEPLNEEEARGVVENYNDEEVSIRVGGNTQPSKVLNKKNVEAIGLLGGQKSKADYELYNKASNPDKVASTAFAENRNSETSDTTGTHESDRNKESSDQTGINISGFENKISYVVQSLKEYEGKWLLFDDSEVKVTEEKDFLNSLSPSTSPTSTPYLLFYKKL
# Chain of USP1 (Recombinant Human His6-USP1/His6-UAF1 Complex Protein) (Q8TAF3 whole entry partner): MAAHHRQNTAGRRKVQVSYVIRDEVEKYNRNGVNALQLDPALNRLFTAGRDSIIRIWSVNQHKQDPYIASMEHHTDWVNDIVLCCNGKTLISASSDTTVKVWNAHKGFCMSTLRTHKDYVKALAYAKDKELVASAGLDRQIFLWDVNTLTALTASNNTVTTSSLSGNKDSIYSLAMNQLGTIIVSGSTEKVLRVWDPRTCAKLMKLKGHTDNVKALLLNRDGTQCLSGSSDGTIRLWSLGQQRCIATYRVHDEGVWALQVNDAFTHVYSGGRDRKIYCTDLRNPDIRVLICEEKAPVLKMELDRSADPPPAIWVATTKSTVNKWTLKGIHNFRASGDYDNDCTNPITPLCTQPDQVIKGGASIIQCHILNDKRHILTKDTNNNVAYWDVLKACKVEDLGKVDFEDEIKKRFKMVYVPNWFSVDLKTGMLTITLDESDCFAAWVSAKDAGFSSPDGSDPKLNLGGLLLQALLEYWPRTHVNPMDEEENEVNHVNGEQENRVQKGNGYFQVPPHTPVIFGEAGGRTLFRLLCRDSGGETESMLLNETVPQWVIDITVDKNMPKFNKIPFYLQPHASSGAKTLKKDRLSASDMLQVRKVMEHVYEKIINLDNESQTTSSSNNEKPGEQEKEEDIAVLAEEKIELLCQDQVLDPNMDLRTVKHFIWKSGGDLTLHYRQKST
row,Compound,IC50 [nM]
1,"CC(C)c1ncccc1-c1ncc2c(n1)N(Cc1ccc(-c3nc(C(F)(F)F)cn3C)cc1)CC(=O)N2 [Compound 4, 2-(2-isopropylpyridin-3-yl)-8-(4-(1-methyl-4-(trifluoromethyl)-1H-imidazol-2-yl)benzyl)-7,8-dihydropteridin-6(5H)-one]",43.3
2,"COc1ncnc(C2CC2)c1-c1ncc2c(n1)N(Cc1ccc3c(c1)CCCn1cc(C(F)(F)F)nc1-3)CC(=O)N2C(C)C [Compound 47, 2-(4-cyclopropyl-6-methoxypyrimidin-5-yl)-5-isopropyl-8-((2-(trifluoromethyl)-6,7-dihydro-5H-benzo[c]imidazo[1,2-a]azepin-9-yl)methyl)-7,8-dihydropteridin-6(5H)-one]",45.9
3,"COc1ncnc(C2CC2)c1-c1ncc2c(n1)N(Cc1ccc3c(c1)CCCn1cc(C(F)(F)F)nc1-3)CC(=O)N2C1CC1 [Compound 48, 5-cyclopropyl-2-(4-cyclopropyl-6-methoxypyrimidin-5-yl)-8-((2-(trifluoromethyl)-6,7-dihydro-5H-benzo[c]imidazo[1,2-a]azepin-9-yl)methyl)-7,8-dihydropteridin-6-(5H)-one]",26.1
4,"COc1ncnc(C2CC2)c1-c1ncc2c(n1)N(Cc1ccc(-c3nc(C(F)(F)F)cn3C)c(F)c1)C(=O)OC2(C)C [Compound 49, 7-(4-cyclopropyl-6-methoxypyrimidin-5-yl)-4,4-dimethyl-1-(3-fluoro-4-(1-methyl-4-(trifluoromethyl)-1H-imidazol-2-yl)benzyl)-1,4-dihydro-2H-pyrimido[4,5-d][1,3]oxazin-2-one]",33.2
5,"COc1ncnc(C2CC2)c1-c1ncc2c(n1)N(Cc1ccc(-c3nc(C(F)(F)F)cn3C)c(F)c1)C(=O)OC21CC1 [Compound 51, 7′-(4-cyclopropyl-6-methoxypyrimidin-5-yl)-1′-(3-fluoro-4-(1-methyl-4-(trifluoromethyl)-1H-imidazol-2-yl)benzyl)spiro[cyclopropane-1,4′-pyrimido[4,5-d][1,3]oxazine]-2′(1′H)-one]",13.8
6,"COc1ncnc(C2CC2)c1-c1ncc2c(n1)N(Cc1ccc(-n3nc(C(F)(F)F)cc3C)cc1)C(=O)OC21CC1 [Compound 53, 7′-(4-cyclopropyl-6-methoxypyrimidin-5-yl)-1′-(4-(5-methyl-3-(trifluoromethyl)-1H-pyrazol-1-yl)benzyl)spiro[cyclopropane-1,4′-pyrimido[4,5-d][1,3]oxazine]-2′(1′H)-one]",8.9
7,"COc1ncnc(C2CC2)c1-c1ncc2c(n1)N(Cc1ccc(-n3nc(C(F)(F)F)cc3C)cc1)C(=O)OC21COC1 [Compound 54, 7′-(4-cyclopropyl-6-methoxypyrimidin-5-yl)-1′-(4-(5-methyl-3-(trifluoromethyl)-1H-pyrazol-1-yl)benzyl)spiro[oxetane-3,4′-pyrimido[4,5-d][1,3]oxazine]-2′(1′H)-one]",23.2
8,"COc1ncnc(C2CC2)c1-c1ncc2c(n1)N(Cc1ccc(-n3nc(C(F)(F)F)cc3C)cc1)C(=O)OC21CCC1 [Compound 55, 7′-(4-cyclopropyl-6-methoxypyrimidin-5-yl)-1′-(4-(5-methyl-3-(trifluoromethyl)-1H-pyrazol-1-yl)benzyl)spiro[cyclobutane-1,4′-pyrimido[4,5-d][1,3]oxazin]-2′(1′H)-one]",8.7
9,"C#CC1(C)OC(=O)N(Cc2ccc(-c3nc(C(F)(F)F)cn3C)c(F)c2)c2nc(-c3c(OC)ncnc3C3CC3)ncc21 (stereo not shown) [Compound 59, 7-(4-cyclopropyl-6-methoxypyrimidin-5-yl)-4-ethynyl-1-(3-fluoro-4-(1-methyl-4-(trifluoromethyl)-1H-imidazol-2-yl)benzyl)-4-methyl-1,4-dihydro-2H-pyrimido[4,5-d][1,3]oxazin-2-one]",13.5
10,COc1ncnc(C2CC2)c1-c1ncc2c(n1)N(Cc1ccc(-c3nc(C(F)(F)F)cn3C)c(C(F)(F)F)c1)CCO2 [Compound 64],22.7
